Experimental data as given in publication PMC6274539, “Photoactivatable Caged Prodrugs of VEGFR-2 Kinase Inhibitors” (Molecules, 2016).

Legend:
CAMKKb = CAMKKb (Homo sapiens, UniProt Q96RR4); assay: kinase profiling, radioactive filter binding assay; assay type: biochemical; settings: 0.1 µM compound, assay duplicates; read-out: residual activity of CAMKKb, mean percentage activity
Outline: (§1)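 [33P]ATP filter-binding radiometric assay; compound 0.1 µM (DMSO); duplicates, mean % residual activity ± SD.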

TBK1 (DU12569) = TBK1 (DU12569) (Homo sapiens, UniProt Q9UHD2); assay: kinase profiling, radioactive filter binding assay; assay type: biochemical; settings: 0.1 µM compound, assay duplicates; read-out: residual activity of TBK1 (DU12569), mean percentage activity
Outline: as §1

MST4 = MST4 (Homo sapiens, UniProt Q9P289); assay: kinase profiling, radioactive filter binding assay; assay type: biochemical; settings: 0.1 µM compound, assay duplicates; read-out: residual activity of MST4, mean percentage activity
Outline: as §1

IKK epsilon (14231) = IKK epsilon (14231) (Homo sapiens, UniProt Q14164); assay: kinase profiling, radioactive filter binding assay; assay type: biochemical; settings: 0.1 µM compound, assay duplicates; read-out: residual activity of IKK epsilon (14231), mean percentage activity
Outline: as §1

PHK = assay: kinase profiling, radioactive filter binding assay; assay type: biochemical; settings: 0.1 µM compound, assay duplicates
Outline: as §1

PIM2 = PIM2 (Homo sapiens, UniProt Q9P1W9); assay: kinase profiling, radioactive filter binding assay; assay type: biochemical; settings: 0.1 µM compound, assay duplicates; read-out: residual activity of PIM2, mean percentage activity
Outline: as §1

p38s MAPK = p38s MAPK (Homo sapiens, UniProt O15264); assay: kinase profiling, radioactive filter binding assay; assay type: biochemical; settings: 0.1 µM compound, assay duplicates; read-out: residual activity of p38s MAPK, mean percentage activity
Outline: as §1

IR-HIS = IR-HIS (Homo sapiens, UniProt P06213); assay: kinase profiling, radioactive filter binding assay; assay type: biochemical; settings: 0.1 µM compound, assay duplicates; read-out: residual activity of IR-HIS, mean percentage activity
Outline: as §1

PC-3 cells = assay: cellular uptake by fluorescence microscopy (cell staining); assay type: cell-based; settings: live PC-3 cells, 10 µM, 30 min, autofluorescence
Method: Next, we investigated the cellular bioavailability of the caged prodrugs. For this purpose, we used the autofluorescence of the carbazole 3 and its caged derivative 5. The emission spectra of both compounds are shown in the Supplementary Figure S6. The fluorescence microscopy was used to explore the uptake of the compounds into the cells. Live PC-3 cells were stained with 10 µM solutions of 3 or 5, and then fixed with formalin. Subsequently, the cell nuclei were counterstained with 1 µg/mL DAPI.
PC-3 cells were stained with the carbazole 3 and its caged derivative 5. For this purpose, the cells were seeded to give 15,000 cells in 50 µL per well into 96-well half area microplate (Ref.: 675986, Greiner bio-one, Kremsmünster, Austria). The plate was incubated for 48 h at 37 °C in a humidified atmosphere with 5% CO2. Compounds 3 and 5 were dissolved in DMEM:Hams F12 (1:1) medium with 5% FCS and added to the cells to give the endconcentration of 10 µM, respectively. The cells were incubated with the compounds for 30 min at 37 °C. After that, the cells were washed twice with PBS and fixed with 3.3% formalin for 15 min. […] After 30 min incubation at 37 °C, the cells were washed with PBS and the fluorescence images were taken at the ImageXpress® Micro XL (Molecular Devices, Sunnyvale CA, USA). […]

[1] = UV stability at 365 nm in DMSO (HPLC, LC-MS); settings: 1 mM in DMSO, 5.4 W, up to 10 min
Method: HPLC and LC-MS analysis were used for content determination.
Aliquots were diluted 1:10 with methanol and analyzed by HPLC.

Sequence of TBK1 (DU12569) (Q9UHD2 whole entry): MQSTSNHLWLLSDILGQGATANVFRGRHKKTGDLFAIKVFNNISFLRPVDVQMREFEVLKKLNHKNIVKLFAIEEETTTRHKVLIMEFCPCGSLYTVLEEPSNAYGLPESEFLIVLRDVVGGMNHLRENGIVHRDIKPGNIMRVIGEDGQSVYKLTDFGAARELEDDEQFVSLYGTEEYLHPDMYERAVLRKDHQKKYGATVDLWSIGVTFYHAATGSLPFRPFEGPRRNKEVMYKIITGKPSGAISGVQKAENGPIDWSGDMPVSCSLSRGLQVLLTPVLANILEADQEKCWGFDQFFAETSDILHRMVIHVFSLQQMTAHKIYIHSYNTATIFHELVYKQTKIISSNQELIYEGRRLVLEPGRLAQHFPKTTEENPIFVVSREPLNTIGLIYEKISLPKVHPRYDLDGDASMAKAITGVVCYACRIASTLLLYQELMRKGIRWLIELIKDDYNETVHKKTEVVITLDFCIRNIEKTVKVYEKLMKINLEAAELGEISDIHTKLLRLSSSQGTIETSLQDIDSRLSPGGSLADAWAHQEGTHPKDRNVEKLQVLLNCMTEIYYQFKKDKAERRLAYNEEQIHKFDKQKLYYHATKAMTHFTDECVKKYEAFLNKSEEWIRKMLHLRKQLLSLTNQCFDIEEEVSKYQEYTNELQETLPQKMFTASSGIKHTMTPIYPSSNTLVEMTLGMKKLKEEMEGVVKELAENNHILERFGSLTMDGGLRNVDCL
Sequence of p38s MAPK (O15264 whole entry): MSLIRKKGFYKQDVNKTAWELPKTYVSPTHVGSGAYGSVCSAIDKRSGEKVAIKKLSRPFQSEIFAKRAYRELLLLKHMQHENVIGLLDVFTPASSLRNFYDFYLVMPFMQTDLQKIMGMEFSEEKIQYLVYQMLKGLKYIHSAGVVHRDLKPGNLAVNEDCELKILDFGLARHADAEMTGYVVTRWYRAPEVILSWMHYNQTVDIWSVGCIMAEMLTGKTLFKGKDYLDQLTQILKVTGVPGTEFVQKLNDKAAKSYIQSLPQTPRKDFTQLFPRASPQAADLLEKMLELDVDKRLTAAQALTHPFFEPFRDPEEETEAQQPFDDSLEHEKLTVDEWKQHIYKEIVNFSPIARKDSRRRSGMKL
Sequence of IKK epsilon (14231) (Q14164 whole entry): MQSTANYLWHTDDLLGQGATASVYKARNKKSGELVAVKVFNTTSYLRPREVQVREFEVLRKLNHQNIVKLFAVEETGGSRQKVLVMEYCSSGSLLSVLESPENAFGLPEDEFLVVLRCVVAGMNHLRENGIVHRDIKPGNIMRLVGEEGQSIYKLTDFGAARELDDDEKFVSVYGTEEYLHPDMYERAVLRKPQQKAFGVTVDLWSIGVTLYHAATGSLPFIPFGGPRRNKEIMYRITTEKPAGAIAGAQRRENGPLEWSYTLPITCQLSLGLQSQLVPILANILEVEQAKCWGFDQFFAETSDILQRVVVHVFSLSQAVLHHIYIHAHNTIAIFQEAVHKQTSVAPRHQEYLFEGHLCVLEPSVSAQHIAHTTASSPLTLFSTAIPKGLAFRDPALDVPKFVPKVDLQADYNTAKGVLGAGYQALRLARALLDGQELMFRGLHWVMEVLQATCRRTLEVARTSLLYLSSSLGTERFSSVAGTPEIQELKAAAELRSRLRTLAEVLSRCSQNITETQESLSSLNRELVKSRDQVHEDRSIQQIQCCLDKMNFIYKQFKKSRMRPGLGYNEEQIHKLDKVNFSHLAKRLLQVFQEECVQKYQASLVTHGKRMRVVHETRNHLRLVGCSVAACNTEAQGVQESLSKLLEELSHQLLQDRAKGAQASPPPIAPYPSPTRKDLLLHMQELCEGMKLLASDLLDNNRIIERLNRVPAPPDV
Sequence of MST4 (Q9P289 whole entry): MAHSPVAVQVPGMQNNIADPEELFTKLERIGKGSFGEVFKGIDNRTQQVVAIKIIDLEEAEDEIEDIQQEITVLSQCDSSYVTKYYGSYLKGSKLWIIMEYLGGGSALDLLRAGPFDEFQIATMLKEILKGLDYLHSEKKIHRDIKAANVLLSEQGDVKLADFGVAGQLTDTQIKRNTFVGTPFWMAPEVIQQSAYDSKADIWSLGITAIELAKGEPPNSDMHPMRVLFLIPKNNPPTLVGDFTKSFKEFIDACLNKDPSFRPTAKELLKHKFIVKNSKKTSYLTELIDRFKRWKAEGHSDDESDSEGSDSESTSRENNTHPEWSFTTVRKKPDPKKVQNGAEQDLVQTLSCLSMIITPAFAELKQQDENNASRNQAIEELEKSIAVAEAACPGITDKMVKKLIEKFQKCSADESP
Sequence of PIM2 (Q9P1W9 whole entry): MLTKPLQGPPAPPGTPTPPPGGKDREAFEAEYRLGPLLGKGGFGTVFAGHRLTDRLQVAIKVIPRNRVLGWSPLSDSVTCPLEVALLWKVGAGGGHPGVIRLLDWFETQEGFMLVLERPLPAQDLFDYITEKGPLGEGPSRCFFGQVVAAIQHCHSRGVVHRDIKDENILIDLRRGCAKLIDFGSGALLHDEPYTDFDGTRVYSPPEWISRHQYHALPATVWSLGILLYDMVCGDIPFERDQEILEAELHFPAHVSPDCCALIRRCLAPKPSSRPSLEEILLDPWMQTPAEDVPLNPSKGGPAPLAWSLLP
Sequence of CAMKKb (Q96RR4 whole entry): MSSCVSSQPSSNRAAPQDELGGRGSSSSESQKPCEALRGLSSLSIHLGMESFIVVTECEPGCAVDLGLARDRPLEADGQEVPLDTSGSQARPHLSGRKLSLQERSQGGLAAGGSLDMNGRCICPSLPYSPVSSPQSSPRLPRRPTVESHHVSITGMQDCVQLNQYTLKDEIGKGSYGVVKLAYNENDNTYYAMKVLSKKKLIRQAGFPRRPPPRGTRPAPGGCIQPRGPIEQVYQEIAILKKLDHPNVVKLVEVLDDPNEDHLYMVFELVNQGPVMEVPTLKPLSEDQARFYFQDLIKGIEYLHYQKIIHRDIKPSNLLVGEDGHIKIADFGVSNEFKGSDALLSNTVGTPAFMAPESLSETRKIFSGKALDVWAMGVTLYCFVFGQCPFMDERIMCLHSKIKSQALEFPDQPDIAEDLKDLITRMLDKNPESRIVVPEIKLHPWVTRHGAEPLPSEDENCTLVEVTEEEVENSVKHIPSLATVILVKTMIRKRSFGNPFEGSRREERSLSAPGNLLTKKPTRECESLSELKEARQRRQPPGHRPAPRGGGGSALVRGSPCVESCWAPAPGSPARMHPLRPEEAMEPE
Sequence of IR-HIS (P06213 28-1382): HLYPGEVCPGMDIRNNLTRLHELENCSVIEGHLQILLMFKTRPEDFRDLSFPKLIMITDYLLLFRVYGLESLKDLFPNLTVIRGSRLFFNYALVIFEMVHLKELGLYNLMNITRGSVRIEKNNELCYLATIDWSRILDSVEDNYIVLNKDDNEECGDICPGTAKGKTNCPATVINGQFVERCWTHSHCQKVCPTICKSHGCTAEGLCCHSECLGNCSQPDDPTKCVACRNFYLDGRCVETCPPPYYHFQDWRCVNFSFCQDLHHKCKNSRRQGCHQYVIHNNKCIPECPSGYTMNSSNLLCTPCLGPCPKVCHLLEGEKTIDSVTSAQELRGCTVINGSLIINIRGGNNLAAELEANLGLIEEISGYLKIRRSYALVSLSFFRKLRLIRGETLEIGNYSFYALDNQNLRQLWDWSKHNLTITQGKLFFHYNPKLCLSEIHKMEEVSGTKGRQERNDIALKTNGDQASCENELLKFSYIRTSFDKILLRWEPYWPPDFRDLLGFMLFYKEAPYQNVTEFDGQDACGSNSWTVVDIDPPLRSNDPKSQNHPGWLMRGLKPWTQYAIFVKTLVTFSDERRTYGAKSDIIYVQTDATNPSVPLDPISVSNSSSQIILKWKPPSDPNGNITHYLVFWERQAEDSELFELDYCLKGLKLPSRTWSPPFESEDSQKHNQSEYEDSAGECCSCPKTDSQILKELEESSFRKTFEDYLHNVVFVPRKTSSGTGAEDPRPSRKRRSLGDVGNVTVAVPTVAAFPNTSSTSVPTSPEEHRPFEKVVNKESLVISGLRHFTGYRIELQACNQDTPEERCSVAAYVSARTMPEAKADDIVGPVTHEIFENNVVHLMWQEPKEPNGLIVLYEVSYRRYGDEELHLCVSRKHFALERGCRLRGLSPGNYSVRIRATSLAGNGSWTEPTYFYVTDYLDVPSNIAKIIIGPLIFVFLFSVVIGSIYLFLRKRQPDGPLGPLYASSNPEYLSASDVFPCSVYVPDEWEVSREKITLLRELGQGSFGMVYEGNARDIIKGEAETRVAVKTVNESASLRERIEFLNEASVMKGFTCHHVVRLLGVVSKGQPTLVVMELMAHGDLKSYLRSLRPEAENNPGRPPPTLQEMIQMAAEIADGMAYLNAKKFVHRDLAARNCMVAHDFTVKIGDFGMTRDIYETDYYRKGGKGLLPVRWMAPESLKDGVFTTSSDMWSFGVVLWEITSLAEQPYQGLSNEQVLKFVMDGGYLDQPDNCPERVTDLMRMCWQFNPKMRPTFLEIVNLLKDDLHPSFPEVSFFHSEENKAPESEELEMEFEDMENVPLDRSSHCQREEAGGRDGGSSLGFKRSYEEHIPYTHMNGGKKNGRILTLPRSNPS

| Structure (SMILES) | remaining activity at 0.1 µM (CAMKKb) | remaining activity at 0.1 µM (TBK1 (DU12569)) | remaining activity at 0.1 µM (MST4) | remaining activity at 0.1 µM (IKK epsilon (14231)) | residual activity of PHK, mean percentage activity (PHK) | remaining activity at 0.1 µM (PIM2) | remaining activity at 0.1 µM (p38s MAPK) | melting point | remaining activity at 0.1 µM (IR-HIS) | cellular uptake (PC-3 cells) | UV stability under irradiation at 365 nm [1] |
| --- | --- | --- | --- | --- | --- | --- | --- | --- | --- | --- | --- |
| COc1cc(C2=C(c3c[nH]c4ccccc34)C(=O)NC2=O)cc(OC)c1OC [Compound 1, 3-(1H-Indol-3-yl)-4-(3,4,5-trimethoxyphenyl)-1H-pyrrole-2,5-dione] | 81% | 88% | 94% | 85% | 73% | 115% | 108% |  |  |  |  |
| COc1cc2c3c(c4c5ccccc5[nH]c4c2c(OC)c1OC)C(=O)NC3=O [Compound 3, 5,6,7-Trimethoxybenzo[a]pyrrolo[3,4-c]carbazole-1,3(2H,8H)-dione] | 49% | 73% | 69% | 94% | 41% | 115% | 90% | 275 °C | 88% | taken up into the cells, but not within the cell nuclei | quite stable |
